Measurements as given in patent US20230107216A1, “PANTETHEINE DERIVATIVES AND USES THEREOF” (Comet Therapeutics, Inc., priority 2018, published 2023).

Experiments:
[1] = test system: Venular Endothelial cells (HUVEC) (3C system); experiment: BioMAP 3C system (IL-1β, TNFα, IFNγ); assay type: cell-based, human; settings: 10 uM; procedure of Example 825
Procedure: (§1) The BioMAP platform (BioMAP® Diversity PLUS® Panel from Eurofins) is an in vitro phenotypic profiling technology that screened the compounds of the present disclosure (hereafter indicated as test agents) in human primary cell-based systems modelling complex tissue and disease states. The BioMAP assays were performed using the Eurofin's BioMAP Technology Platform as (see references 1 to 13 in the example 824 section) to model different diseases on primary cell-based model systems. These systems consisted of either single primary cell types or co-culture cells. Adherent cell types were cultured or co-cultured in 96 or 384-well plates until confluence followed by the addition of compounds prepared in DMSO at a final concentration of ≤0.1%. In each cell-based system, primary cells from heathy donors (2-6 donors) were pooled and treated with compounds at 1 and 10 μM dose 1h prior to stimulation and remain in culture as indicated in Example 825, Example 826, Example 827, Example 828, Example 829, Example 830, Example 831, Example 832, Example 833, Example 834, Example 835, Example 836 and Example 837. For on the BioMAP® Diversity PLUS® Panel, please see the following references, which are incorporate herein.
Following the general procedure as described in Example 824, Venular Endothelial cells (HUVEC) (3C system) were treated with IL-1β, TNFα, IFNγ for 24h to model Th1 driven cardiovascular and chronic inflammation diseases in the presence or absence of the compounds. Biomarker read out were; Tissue Factor, ICAM-1, E-selectin, uPAR (CD87), IL-8, MIG, HLA-DR, proliferation and SRB (Sulfo-rhodamine i.e. staining for protein content).

[2] = test system: Peripheral blood mononuclear cells co-cultured with venular endothelial cells (Sag system); experiment: BioMAP Sag system (T-cell ligands); assay type: cell-based, human; settings: 10 uM; procedure of Example 828
Procedure: as §1
Following the general procedure as described in Example 824, Peripheral blood mononuclear cells were co-cultured with venular endothelial cells and treated with soluble antigen (T-cell ligands) (Sag system) in the presence or absence of compounds to model autoimmune and chronic inflammation. Biomarkers read out were; MCP-1, CD38, CD40, E-selectin, CD69, IL-8, MIG, PBMC cytotoxicity, Proliferation and SRB.

[3] = test system: oligodendrocyte precursor cells (OPC) in mixed brain cultures; experiment: Oligodendrocyte precursor cells (OPC) proliferation, O4+ cell count; assay type: cell-based, mouse; settings: 10 uM
Procedure: The effect of compounds of the present disclosure was determined on oligodendrocyte precursor cells proliferation (OPC).
Cell culture. Brains of wild type mice (whole brain from 1 or 2 mouse pups) less than postnatal day (P) 2 were isolated and cultured. Briefly, following removal of the meninges, cells were dissociated with 0.25% EDTA/CMF-DMEM and 1% Trypsin (1:1), plated at a density of 75,000 cells/on 0.1 mg/ml poly-L-lysine coated borosilicate glass coverslips in 24-well plates, grown in OPC differentiation media (Oligo media) consisting of DMEM/F12 (Invitrogen 21331-020) supplemented with 1% FBS, 1% N2 Neural Supplement (Invitrogen 17502-048) and PDGF receptor alpha growth factor (Invitrogen 17502-048). Cells were fed every other day and allowed to grow for 7 days in vitro (DIV).
OPCs treatment with compounds of the present disclosure. Cells were treated with compounds of the present disclosure (50-10 μM) or vehicle (0.1% DMSO) starting at 7 DIV. Media was replaced daily with freshly made working solutions of compounds or vehicle for either 48 h (9 DIV total) or 96 h (11 DIV). The 48 h group consisted of 1 coverslip per condition. The 96 h group was treated in duplicate.
Fresh aliquots of compounds of the present disclosure were made up on the day of treatment, briefly, a 50 mM stock was thawed and used to make up fresh 50 μM working solution in Oligo Media. The fresh 50 μM working solution was diluted further in Oligo Media to make 10 μM working solution. Vehicle controls was made up in fresh Oligo Media using the appropriate amount of vehicle (DMSO). Coverslips were stored in clean 24-well plates at 4° C. until fixed-staining. Cells were imaged using Leica DM5500 fluorescent microscope with LAS-X software.
Exposure settings were maintained at the same rate across compounds of the same time-point. Cells were imaged at 20× and 40× magnifications. At least 5 images were taken per condition. Most conditions had at least 5 images that were counted. 20× images were utilized for counting DAPI (cell nuclei) and O4+ cells.
Total DAPI per image for all images was counted using ImageJ as here indicated. • Image was converted to 8 bit • Blue Channel (DAPI) was automatically thresholded by default ImageJ settings • Image noise was reduced by ImageJ>Process>Noise>Despeckle • ImageJ>Process>Binary>Watershed was used to automatically separate merged cell nuclei • ImageJ>Analyze>Analyze Particles was used to obtain final count of DAPI per image • Total number of DAPI-positive cells
Total number of O4+ cells per 20× image was manually counted using Adobe Photoshop: • All cell bodies of OPCs with underlying DAPI stain were counted as an O4+ cell • Total number of O4+ cells were recorded in Excel Spreadsheet O4+ cells in mixed brain cultures of wild type mice <P2 treated with compounds of the present disclosure or vehicle were quantified per condition (time point and concentration). The following formula was used to normalize the total cell counts within a compound as well as across compounds treated for the same duration (48h vs. 96h):
(number of O4+cell counts in Compound X/Average DAPI count for Compound X)*Total Average DAPI count across compounds of same Time Point
Values were plotted as Scatter Interval plots in Origin. Each data point represents a single image from which O4+ cell values were obtained. Data are presented as mean±S.E.
Images are at 20× magnification and represent 1-2 coverslips per group. Scale bar, 50 μm.

Structure (SMILES)	% increase in Proliferation (HUVEC) [1] [%]	% Increase OPC proliferation [3] [%]	further results
COC(=O)CCC(=O)SCCNC(=O)CCNC(=O)[C@H](OC(=O)CN)C(C)(C)CO [Compound 1294, methyl 4-[(2-[3-[(2R)-2-[(2-aminoacetyl)oxy]-4-hydroxy-3,3-dimethylbutanamido]propanamido]ethyl)sulfanyl]-4-oxobutanoate]	≥20		% decrease in IL-8 [1]: ≥10%
CCCCCCC(=O)SCCNC(=O)CCNC(=O)[C@H](O)C(C)(C)CO [Compound 372, (2R)—N-(2-[[2-(heptanoylsulfanyl)ethyl]carbamoyl]ethyl)-2,4-dihydroxy-3,3-dimethylbutanamide]	≥20		% increase in Proliferation [2]: ≥10%
COC(=O)CC(C(C)=O)C(=O)SCCNC(=O)CCNC(=O)[C@H](O)C(C)(C)CO (stereo partly shown) [Compound 410]		≥25	
CC(C)(CO)[C@@H](O)C(=O)NCCC(=O)NCCSC(=O)CCCN [Compound 370, (2R)—N-[2-([2-[(4-aminobutanoyl)sulfanyl]ethyl]carbamoyl)ethyl]-2,4-dihydroxy-3,3-dimethylbutanamide]		≥10	
CC(C)(CO)[C@@H](O)C(=O)NCCC(=O)NCCSC(=O)CCC(=O)O [Compound 1, (R)-4-((2-(3-(2,4-dihydroxy-3,3-dimethylbutanamido)propanamido)ethyl)thio)-4-oxobutanoic acid]		≥25	
CC(=O)OCC(C)(C)[C@@H](OC(C)=O)C(=O)NCCC(=O)NCCSC(C)=O [Compound 1264, (1R)-3-(acetyloxy)-1-[(2-[[2-(acetylsulfanyl)ethyl]carbamoyl]ethyl)carbamoyl]-2,2-dimethylpropyl acetate]	≥10		
C[C@@H](O)CC(=O)SCCNC(=O)CCNC(=O)[C@H](O)C(C)(C)CO [Compound 38, S-2-{3-[(R)-2,4-dihydroxy-3,3-dimethylbutyrylamino]propionylamino} ethyl (R)-3-hydroxybutanethioate]		≥25	
COC(=O)CCC(=O)SCCNC(=O)CCNC(=O)[C@H](OC(=O)CNC(C)=O)C(C)(C)CO [Compound 1298, methyl 4-[(2-[3-[(2R)-2-[(2-acetamidoacetyl)oxy]-4-hydroxy-3,3-dimethylbutanamido]propanamido]ethyl)sulfanyl]-4-oxobutanoate]			% decrease in IL-8 [1]: ≥10%
CC(C)(CO)[C@@H](O)C(=O)NCCC(=O)NCCSC(=O)[C@@H](N)Cc1ccc(O)c(O)c1 [Compound 371, (2R)—N-[2-[(2-[[(2S)-2-amino-3-(3,4-dihydroxyphenyl)propanoyl]sulfanyl]ethyl)carbamoyl]ethyl]-2,4-dihydroxy-3,3-dimethylbutanamide]	≥10		% decrease in Proliferation [2]: ≥10%; % increase in PBMC cytotoxicity [2]: ≥10%
CC(=O)SCCNC(=O)CCNC(=O)[C@H](O)C(C)(C)COC(=O)[C@@H](N)Cc1ccc(O)c(O)c1 [Compound 498, (3R)-3-[(2-[[2-(acetylsulfanyl)ethyl]carbamoyl]ethyl)carbamoyl]-3-hydroxy-2,2-dimethylpropyl (2S)-2-amino-3-(3,4-dihydroxyphenyl)propanoate]		≥25	% decrease in Proliferation [2]: ≥10%
C[C@@H](O)CC(=O)CC(=O)SCCNC(=O)CCNC(=O)[C@H](O)C(C)(C)CO [Compound 42, (2R)-2,4-dihydroxy-N-[2-[(2-[[(5R)-5-hydroxy-3-oxohexanoyl]sulfanyl]ethyl)carbamoyl]ethyl]-3,3-dimethylbutanamide]			% increase in Proliferation [2]: ≥10%
